Laboratory results as given in US7772179B2, “Photodynamic therapy using chemiluminescence and a ligand-photosensitiser conjugate” (priority 2005, dated 2010).

Assays:
FL cells [1] = conditions: in the dark
FL cells [2] = test: LTC cytotoxicity assay (PDT with ambient fluorescent light), trypan blue exclusion; format: cell-based
Method: (§1) (C); 0.5-1×10^5 cells/ml were cultured for 2 hr in the dark in medium alone or containing Hp or Tf-Hp (0-3 μM), washed, exposed to ambient fluorescent light for 16 hrs at room temperature and then re-cultured in full medium for 24 hrs. Cell viability was assessed by trypan blue exclusion. The data represent the mean and standard deviation from at least 3 experiments;
(§2) Late log-phase cells were washed with DMEM pre-warmed to 37° C. and cultured at 0.5-1×10^5 cells/ml either alone or with increasing concentrations of Tf-Hp LTC for 2 hrs at 37° C. in 6% CO2. Cells were then washed with DMEM, exposed to ambient fluorescent light (fluence rate=0.5 mW/cm^2) for 12-16 hours and then re-cultured in full medium for 24 hrs. […] Experiments were repeated at least three times.

K562 cells = test: as above; format: cell-based, Human; conditions: K-562 cells, external ambient fluorescent light
Method: as §1, §2

| Structure (SMILES) | cytotoxicity, luminol alone (FL cells [1]; 10 μM luminol, no Ps) | maximum cytotoxicity (LDMAX) (FL cells [2]; FL cells, external ambient fluorescent light) | sensitivity of FL cells relative to K-562 at LDMAX (FL cells [2]; free Hp treatment, FL versus K-562) | maximum activity (cytotoxicity) (FL cells [2]; optimization of the LTC cytotoxicity assay, about 2 hr exposure, cell line not stated) | maximum cytotoxicity together with luminol (FL cells [1]; together with 10 μM luminol, no external light) | maximum cytotoxicity (LDMAX) (K562 cells) |
| --- | --- | --- | --- | --- | --- | --- |
| Nc1cccc2c(=O)[nH][nH]c(=O)c12 [luminol, 5-amino-2-3-dihydro-1,4-phtalazinedione] | about 15% | – | – | – | – | – |
| CC1=C(CCC(=O)O)c2cc3[nH]c(cc4nc(cc5[nH]c(cc1n2)c(C)c5C(C)O)C(C)=C4C(C)O)c(C)c3CCC(=O)O (stereo not drawn) [Hp, hematoporphyrin] | – | 90% | 16.6 | 24% | 30% | 90% |
